According to PubChem BioAssay AID330 (DTP/NCI, 2004):
Values joined by “and” are separate entries in the source; they are usually repeats but may differ in a detail not shown here. Identical values can stand only once. Toxic doses and inconclusive results are not listed.

System: P388 leukemia ip, CD2F1 mice, survival T/C
Assay: NCI In Vivo Anticancer Drug Screen. Data for tumor model P388 Leukemia (intraperitoneal) in CD2F1 (CDF1) mice
Settings: endpoint: median survival time, higher = longer survival
Outline: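 Mice carrying the transplanted tumor received test compound or vehicle. Survival was recorded in each group, and the value is the treated-group measurement divided by that of the vehicle-treated control group.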

[1] = dose: 50.0 mg/kg/injection, schedule: Q01DX009 (ip), vehicle: saline with Tween-80
[2] = dose: 100.0 mg/kg/injection, schedule: Q01DX009 (ip), vehicle: saline with Tween-80
[3] = dose: 200.0 mg/kg/injection, schedule: Q01DX009 (ip), vehicle: saline with Tween-80
[4] = dose: 50.0 mg/kg/injection, schedule: Q01DX005 (ip), vehicle: saline with Tween-80
[5] = dose: 100.0 mg/kg/injection, schedule: Q01DX005 (ip), vehicle: saline with Tween-80
[6] = dose: 200.0 mg/kg/injection, schedule: Q01DX005 (ip), vehicle: saline with Tween-80
[7] = dose: 120.0 mg/kg/injection, schedule: Q01DX005 (ip), vehicle: Klucel (hydroxypropylcellulose) (HPC)
[8] = dose: 240.0 mg/kg/injection, schedule: Q01DX005 (ip), vehicle: Klucel (hydroxypropylcellulose) (HPC)
[9] = dose: 25.0 mg/kg/injection, schedule: Q01DX009 (ip), vehicle: saline with Tween-80
[10] = dose: 100.0 mg/kg/injection, schedule: Q01DX009 (ip), vehicle: Klucel (hydroxypropylcellulose) (HPC)
[11] = dose: 60.0 mg/kg/injection, schedule: Q01DX005 (ip), vehicle: Klucel (hydroxypropylcellulose) (HPC)
[12] = dose: 12.5 mg/kg/injection, schedule: Q01DX005 (ip), vehicle: saline with Tween-80
[13] = dose: 25.0 mg/kg/injection, schedule: Q01DX005 (ip), vehicle: saline with Tween-80
[14] = dose: 60.0 mg/kg/injection, schedule: Q01DX005 (ip), vehicle: saline with Tween-80
[15] = dose: 120.0 mg/kg/injection, schedule: Q01DX005 (ip), vehicle: saline with Tween-80
[16] = dose: 240.0 mg/kg/injection, schedule: Q01DX005 (ip), vehicle: saline with Tween-80

`CCN(C)c1cc(=O)c2c(ccc3ccccc32)o1` was tested, and the T/C [1] was 94 % of control, the T/C [2] was 101 % of control and the T/C [3] was 95 % of control.

For `N#CC(C(=O)CCC(=O)C(C#N)c1c(Cl)cccc1Cl)c1c(Cl)cccc1Cl` (centres undefined), the T/C [4] was 100 % of control, the T/C [5] was 98 % of control and the T/C [6] was 98 % of control.

In the case of `Nc1nc(N)nc(Nc2ccc(-c3cc4ccc(-c5ncc[nH]5)cc4[nH]3)cc2)n1`, the T/C (dose: 30.0 mg/kg/injection, schedule: Q01DX005 (ip), vehicle: Klucel (hydroxypropylcellulose) (HPC)) is reported as 153 % of control, the T/C [7] is reported as 164 % of control and 171 % of control and the T/C [8] is reported as 183 % of control and 188 % of control.

`C=C(C)C(=O)OC1C/C(CO)=C\C(O)C/C(C)=C/C2OC(=O)C(=C)C21` (centres undefined) was tested, and the T/C (dose: 1.25 mg/kg/injection, schedule: Q01DX009 (ip), vehicle: saline + alcohol) was 121 % of control, the T/C (dose: 2.5 mg/kg/injection, schedule: Q01DX009 (ip), vehicle: saline + alcohol) was 104 % of control and the T/C (dose: 10.0 mg/kg/injection, schedule: Q01DX009 (ip), vehicle: saline + alcohol) was 159 % of control. The T/C (dose: 20.0 mg/kg/injection, schedule: Q01DX009 (ip), vehicle: saline + alcohol) was 167 % of control.

For `C=C(CCCC)CNCCOC(=O)c1ccc([N+](=O)[O-])cc1`, the T/C (dose: 12.5 mg/kg/injection, schedule: Q04DX003 (ip), vehicle: saline) was 104 % of control, the T/C (dose: 25.0 mg/kg/injection, schedule: Q04DX003 (ip), vehicle: saline) was 104 % of control and the T/C (dose: 50.0 mg/kg/injection, schedule: Q04DX003 (ip), vehicle: saline) was 104 % of control.

With `OC(c1cc2cc(Br)ccc2c2cc(Br)ccc12)C1CCCCN1` (centres undefined) the T/C (dose: 6.25 mg/kg/injection, schedule: Q01DX009 (ip), vehicle: saline with Tween-80) was 107 % of control, the T/C (dose: 12.5 mg/kg/injection, schedule: Q01DX009 (ip), vehicle: saline with Tween-80) was 109 % of control and the T/C [9] was 101 % of control.

In the case of `COc1cc2c(c(OC)c1OC)-c1oncc1CC2`, the T/C (dose: 100.0 mg/kg/injection, schedule: Q04DX003 (ip), vehicle: Klucel (hydroxypropylcellulose) (HPC)) is reported as 90 % of control, the T/C (dose: 200.0 mg/kg/injection, schedule: Q04DX003 (ip), vehicle: Klucel (hydroxypropylcellulose) (HPC)) is reported as 92 % of control and the T/C (dose: 400.0 mg/kg/injection, schedule: Q04DX003 (ip), vehicle: Klucel (hydroxypropylcellulose) (HPC)) is reported as 87 % of control.

`NC(N)=NCCCC(N=C1C=CC(=NC(CCCN=C(N)N)C(=O)O)C=C1)C(=O)O` (centres undefined) was tested, and the T/C (dose: 50.0 mg/kg/injection, schedule: Q04DX002 (ip), vehicle: distilled water + alcohol) was 99 % of control, the T/C (dose: 100.0 mg/kg/injection, schedule: Q04DX002 (ip), vehicle: distilled water + alcohol) was 101 % of control and the T/C (dose: 200.0 mg/kg/injection, schedule: Q04DX002 (ip), vehicle: distilled water + alcohol) was 104 % of control. For the same compound, the T/C (dose: 400.0 mg/kg/injection, schedule: Q04DX002 (ip), vehicle: distilled water + alcohol) was 107 % of control and the T/C (dose: 600.0 mg/kg/injection, schedule: Q04DX002 (ip), vehicle: distilled water + alcohol) was 108 % of control.

For `CC(=O)c1cc(C(=O)O)c(O)c2ccccc12`, the T/C (dose: 50.0 mg/kg/injection, schedule: Q01DX009 (ip), vehicle: Klucel (hydroxypropylcellulose) (HPC)) was 90 % of control and the T/C [10] was 92 % of control.

With `Clc1ccc(-c2cc(-c3cc(-c4ccc(Cl)c(Cl)c4)n[nH]3)[nH]n2)cc1Cl` the T/C [11] was 97 % of control, the T/C [7] was 86 % of control and the T/C [8] was 96 % of control.

With `CC1OC(=O)C(=O)/C1=C1/CC(C)(C)N(c2ccccc2)N1` (centres undefined) the T/C [9] was 104 % of control and 91 % of control, the T/C [1] was 107 % of control and 108 % of control and 90 % of control and the T/C [2] was 90 % of control and 96 % of control. For the same compound, the T/C [3] was 88 % of control and 92 % of control.

With `COc1ccc(COC(=O)Nc2ccccc2F)c(OC)c1OC` the T/C [4] was 91 % of control, the T/C [5] was 101 % of control and the T/C [6] was 100 % of control.

For `Cn1c(=O)c2cc(O)cnc2n(C)c1=O`, the T/C (dose: 100.0 mg/kg/injection, schedule: Q04DX003 (ip), vehicle: saline with Tween-80) was 95 % of control, the T/C (dose: 200.0 mg/kg/injection, schedule: Q04DX003 (ip), vehicle: saline with Tween-80) was 91 % of control and the T/C (dose: 400.0 mg/kg/injection, schedule: Q04DX003 (ip), vehicle: saline with Tween-80) was 86 % of control.

`[O-]c1nc(C(F)(F)F)nc(C(F)(F)F)c1-[n+]1ccccc1` was tested, and the T/C [11] was 108 % of control, the T/C [7] was 104 % of control and the T/C [8] was 96 % of control.

With `O=C1CN(c2cccc(C(F)(F)F)c2)C(=O)CN1/N=C/c1ccc(O)c(O)c1` the T/C (dose: 6.25 mg/kg/injection, schedule: Q01DX005 (ip), vehicle: saline with Tween-80) was 100 % of control, the T/C [12] was 97 % of control and the T/C [13] was 96 % of control.

For `Nc1nc2nc3c(nc2c(=O)[nH]1)CCCC3`, the T/C [14] was 101 % of control, the T/C [15] was 92 % of control and the T/C [16] was 90 % of control.

In the case of `CSc1cc(C)c(O)c(CO)c1`, the T/C (dose: 100.0 mg/kg/injection, schedule: Q04DX003 (ip), vehicle: other) is reported as 104 % of control, the T/C (dose: 200.0 mg/kg/injection, schedule: Q04DX003 (ip), vehicle: other) is reported as 100 % of control and the T/C (dose: 400.0 mg/kg/injection, schedule: Q04DX003 (ip), vehicle: other) is reported as 100 % of control.

For `Cc1ccc(CCn2c3c(c4cc(Cl)ccc42)CN(C)CC3)cn1`, the T/C (dose: 50.0 mg/kg/injection, schedule: Q01DX009 (ip), vehicle: saline) was 99 % of control and the T/C (dose: 100.0 mg/kg/injection, schedule: Q01DX009 (ip), vehicle: saline) was 102 % of control.

`CCSCC1C(=O)C23C(O)C1CCC2C12COC3(O)C(O)C1C(C)(C)CCC2O` (centres undefined) was tested, and the T/C (dose: 22.5 mg/kg/injection, schedule: Q01DX009 (ip), vehicle: saline with Tween-80) was 108 % of control, the T/C (dose: 45.0 mg/kg/injection, schedule: Q01DX009 (ip), vehicle: saline with Tween-80) was 112 % of control and the T/C (dose: 90.0 mg/kg/injection, schedule: Q01DX009 (ip), vehicle: saline with Tween-80) was 94 % of control.

With `O=C(c1ccc(Cl)nc1)c1cccs1` the T/C (dose: 50.0 mg/kg/injection, schedule: Q01DX005 (ip), vehicle: distilled water + alcohol) was 98 % of control, the T/C (dose: 100.0 mg/kg/injection, schedule: Q01DX005 (ip), vehicle: distilled water + alcohol) was 108 % of control and the T/C (dose: 200.0 mg/kg/injection, schedule: Q01DX005 (ip), vehicle: distilled water + alcohol) was 110 % of control.

`O=C1C(Cl)=C(Sc2nc3ccccc3s2)C(=O)c2ccccc21` was tested, and the T/C [12] was 100 % of control and the T/C [13] was 100 % of control.

With `CC1CC=C2C=C(Cl)C=CC2(C)C1C` (centres undefined) the T/C [4] was 98 % of control, the T/C [5] was 96 % of control and the T/C [6] was 91 % of control.

With `CC1NC(=O)OC12CCCCC2` (centres undefined) the T/C [9] was 93 % of control and the T/C [1] was 100 % of control.

For `ClC1(Cl)C(=C=C2C3CC4CC(C3)CC2C4)C12C1CC3CC(C1)CC2C3` (centres undefined), the T/C (dose: 25.0 mg/kg/injection, schedule: Q01DX009 (ip), vehicle: Klucel (hydroxypropylcellulose) (HPC)) was 100 % of control, the T/C (dose: 50.0 mg/kg/injection, schedule: Q01DX008 (ip), vehicle: Klucel (hydroxypropylcellulose) (HPC)) was 101 % of control and the T/C (dose: 100.0 mg/kg/injection, schedule: Q01DX008 (ip), vehicle: Klucel (hydroxypropylcellulose) (HPC)) was 101 % of control. The T/C [10] was 94 % of control and the T/C (dose: 200.0 mg/kg/injection, schedule: Q01DX008 (ip), vehicle: Klucel (hydroxypropylcellulose) (HPC)) was 87 % of control.

In the case of `CCNC(=O)c1ccccc1S(C)=O` (centres undefined), the T/C [14] is reported as 99 % of control, the T/C [15] is reported as 111 % of control and the T/C [16] is reported as 104 % of control.

`Cc1ccc(-c2nc3n(c2C=O)CCS3)cc1` was tested, and the T/C (dose: 100.0 mg/kg/injection, schedule: Q01DX001 (ip), vehicle: Klucel (hydroxypropylcellulose) (HPC)) was 112 % of control, the T/C (dose: 200.0 mg/kg/injection, schedule: Q01DX001 (ip), vehicle: Klucel (hydroxypropylcellulose) (HPC)) was 106 % of control and the T/C (dose: 400.0 mg/kg/injection, schedule: Q01DX001 (ip), vehicle: Klucel (hydroxypropylcellulose) (HPC)) was 98 % of control.

`CCNC1=C(C(=O)OCC)C(=O)CO1` was tested, and the T/C [14] was 100 % of control, the T/C [15] was 100 % of control and the T/C [16] was 99 % of control.

With `CCN(CC)c1cc(-c2ccccc2)oc(=O)c1Cl` the T/C [1] was 100 % of control, the T/C [2] was 93 % of control and the T/C [3] was 97 % of control.

For `CCCCCCC1(/C=C/c2ccc(Cl)c(Cl)c2)OCCCO1`, the T/C (dose: 50.0 mg/kg/injection, schedule: Q01DX009 (ip), vehicle: saline + alcohol) was 98 % of control, the T/C (dose: 100.0 mg/kg/injection, schedule: Q01DX009 (ip), vehicle: saline + alcohol) was 93 % of control and the T/C (dose: 200.0 mg/kg/injection, schedule: Q01DX009 (ip), vehicle: saline + alcohol) was 98 % of control.
